Assay [1] has as its system recurrent or malignant cervical cancer. Particulars: treatment of recurrent or malignant cervical cancer; clinical; cited from earlier work.
The subject of assay [2] is B-hB7-H3 MC38 transplantation tumours. The experiment in a line: B-hB7-H3 MC38 transplantation tumour model, ADC1 in combination with anti-PD-L1 drug. Format: in vivo, C57BL/6 mice. The following applies: G4: anti-PD-L1 3 mg/kg i.p. BIW x4. The procedure:
MC38 cells (Shunran (Shanghai) Biotechnology Co., Ltd.) were genetically modified to express the human B7H3 genes, thereby obtaining B-hB7-H3 MC38 cells. The cells were subcutaneously inoculated into C57BL/6 mice to establish a B-hB7-H3 MC38 tumour cell transplantation tumour model. When the tumours grew to approximately 140 mm^3, grouping for animal experiments was performed, a control group (G1: 0.9% sodium chloride injection), monotherapy groups (G2: ADC1 10 mg/kg group, G3: ADC1 3 mg/kg group, G4: anti-PD-L1 3 mg/kg group), and combination therapy groups (G5: group with ADC1 10 mg/kg in combination with anti-PD-L1 3 mg/kg, G6: group with ADC1 3 mg/kg in combination with anti-PD-L1 3 mg/kg) were established respectively, with 8 mice in each group. Dosing was performed according to the regimen in Table 1. The anti-PD-L1 drug was atezolizumab (Biocytogen). At the end of the experiment, therapeutic effects were evaluated according to the tumour growth inhibition (TGI), and tolerability was evaluated according to clinical observations, body weight changes, and mortality of the animals.
Note: a: the dosing volume was calculated at […] based on the body weight of the experimental animals, and each drug injection was completed within 10 to 20 seconds. • b: BIW refers to administration twice weekly. When the combined treatment groups were dosed on the same day, there was no required sequence or dosing interval between the two drugs.
Note: a: mean±standard error; b: statistical comparison of the tumour volume in the dosing groups versus the tumour volume in the G1 control group on Day 22 after grouping for dosing, one-way ANOVA analysis and Dunnett's test; ****p<0.0001. c: the tumour clearance proportion was counted according to the results on Day 25.

Consider two substances from patent US20260256933A1, “METHOD FOR TREATING CANCER VIA ANTI-B7H3 ANTIBODY-DRUG CONJUGATE” (MediLink Therapeutics (Suzhou) Co., Ltd., priority 2023, published 2026).

Take Tivdak: an ADC drug targeting TF: in assay [1], the ORR was 24%.

On to atezolizumab [Anti-PD-L1], for which the “TGITV (%)” value in assay [2] (Day 22) came to 22.4%. Besides, the “Tumour volume before dosing” value in assay [2] (baseline before dosing, mean) is 140 mm3. Moreover, in assay [2] (counted on Day 25), the Tumour clearance proportion was 0/8. In assay [2] (mean), the “Tumour volume Day 22 after grouping for dosing” value came out at 1689 mm3.
